From paper PMC9527238, “Glutamate and GABAA receptor crosstalk mediates homeostatic regulation of neuronal excitation in the mammalian brain” (Signal Transduction and Targeted Therapy, 2022)
Like-named read-outs stand apart in the source and are kept apart here.

How the values were obtained:
postsynaptic GABAARs = assay: mIPSCs in cultured hippocampal neurons; type: cell-based, rat; settings: AP5 200 μM; TTX 0.5 μM, CNQX 10 μM
Experimental: (§1) GABAAR-mediated inhibitory processes in the CNS include phasic and tonic inhibitions. The phasic inhibition is primarily mediated by the activation of postsynaptic GABAARs and can be evaluated by recording miniature inhibitory postsynaptic currents (mIPSCs; Fig. 2c).
(§2) Cultured hippocampal neurons were prepared from the brains of D18 fetal Wister rats. Tissues were digested with a 0.25% trypsin solution (Invitrogen) for 25 min at 37 °C, and then mechanically dissociated using a fire-polished Pasteur pipette. Next, the cell suspension was centrifuged at 2500 × g for 50 s and the cell pellets were resuspended in DMEM containing 10% Fetal Bovine Serum (FBS; Sigma-Aldrich). Cells were seeded on poly-D-lysine-coated 24-well coverslips at a density of 2.5 × 10^5 cells/well. Cultures were maintained in a humidified incubator with 5% CO2 at 37 °C. After 24 h, plating medium was changed to Neurobasal medium supplemented with B-27 supplement and L-glutamine, and the media changed twice weekly thereafter. […]
(§3) Whole-cell patch-clamp recordings were performed under voltage-clamp mode using an Axopatch 200B or 1D patch-clamp amplifier (Molecular Devices) on HEK293 cells and cultured neurons. Whole-cell currents were recorded at a holding potential of −60 mV, and signals were filtered at 2 kHz, digitized at 10 kHz (Digidata 1322 A). […]

[1] = biological target: T1, GABAAR-mediated currents, β2E181G KI mice (Mus musculus, UniProt P63137, E206G); assay: Whole-cell recording of CA1 neurons, hippocampal slices of homozygous β2E181G KI mice; type: cell-based; settings: AP5 50 µM; homozygous KI slices
T1 construct: from tissue; host or cells: acute hippocampal slices of homozygous β2E181G knock-in mice (C57BL/6J), CA1 neurons
Experimental: (§4) We next determined if glutamate-mediated allosteric potentiation of GABAAR function was impaired in hippocampal slices acutely prepared from postnatal 90-day-old KI mice. Whole-cell recordings of CA1 neurons were performed under voltage clamp configuration at a holding potential of −60 mV.
(§5) Mice were deeply anesthetized with urethane (1.5 g/kg, i.p.) and transcardially perfused with ice cold sucrose hypertonic cutting solution (in mM: KCl 3.0, NaH2PO4.H2O 1.25, NaHCO3 26, Na-vitamin C 0.4, Na-lactate 2.0, Na-pyruvate 2.0, D-glucose 10.0, Sucrose 220, CaCl2 0.1, MgCl2 2, MgSO4 4.0, pH 7.4, 290–300 mOsm/l) prior to decapitation as described previously.[47] After decapitation, the brain was rapidly removed and transferred to the ice cold cutting solution bubbled with 95% O2 and 5% CO2, and acute coronal brain slices (400 μm) were prepared on a Leica vibratome (VT1200S, Germany). All brain slices were placed into a standard artificial cerebral spinal fluid (ACSF) (in mM: NaCl 124, KCl 2.8, NaH2PO4.H2O 1.25, NaHCO3 26, Na-vitamin C 0.4, Na-lactate 2.0, Na-pyruvate 2.0, D-glucose 10.0, CaCl2 2, MgSO4 1.2, pH 7.4, 290–300 mOsm/l) incubated at 35 °C for 2 h prior to recording. Field excitatory postsynaptic potential (fEPSP) recordings were performed under current-clamp mode using HEKA EPC10 patch-clamp amplifier (HEKA Electronic, Lambrecht/Pfalz, Germany). […]

α1β2 GABAARs = biological target: T2, α1β2 GABAARs (Rattus norvegicus, UniProt P62813+P63138); assay: [3H]glutamate binding assay, plasma membranes of HEK293 cells overexpressing α1 and β2
T2 construct: expressed in transfected cells; host or cells: HEK293
Experimental: For membrane preparation, transfected or non-transfected HEK293 cells were washed twice with cold PBS and harvested by scraping into 5 ml cold PBS. Cells were then centrifuged at 1200 × g for 12 min at 4 °C and medium was removed. The washing procedure was repeated twice. Then the cell pellet was re-suspended into 1 ml of 50 mM Tris-HCl buffer (pH 7.4, with protease inhibitor) and homogenized using syringes with 18-G, 21-G and 23-G needles.
To separate the membrane, the homogenate were centrifuged for 20 min at 20,000 × g at 4 °C. Then the pellet was re-suspended into 1 ml of 50 mM Tris-HCl buffer, pH 7.4 and centrifuged again. After repeating this procedure for one more time, the pellet was re-suspended into 1 ml of 50 mM Tris-HCl buffer, pH 7.4 and the protein concentration was measured.
To conduct the binding assay, 100 µg membrane enriched preparation was incubated with 40 nM [3H]-Glutamate in a total volume of 0.5 ml in 50 mM Tris-HCl buffer, pH 7.4 for 1 h on ice. […] Then the reaction was terminated by quickly filtering the solution on Whatman filter paper and washing by 3.5 ml Tris-HCl buffer. Radioactivity was measured in a Beckman liquid scintillation counter.

rat α1β2γ2 GABAARs = biological target: T3, rat α1β2γ2 GABAARs (Rattus norvegicus, UniProt P62813+P63138); assay: Whole-cell patch clamp of GABA-evoked currents, HEK293 cells expressing wild-type α1β2γ2; type: cell-based
T3 construct: expressed in transfected cells; host or cells: HEK293
Experimental: (§6) Co-expression of the α and β subunits is the minimum requirement for a functional recombinant GABAAR expressed in a heterologous cell line such as HEK293, while co-expression of the α, β and γ subunits is required for the recombinant receptor with a full pharmacological profile.[2] We therefore transiently expressed either rat α1β2 or α1β2γ2 subunits in HEK293 cells.
(§7) HEK293 cells were cultured in DMEM (Invitrogen) supplemented with 10% fetal bovine serum. Cells were grown to 40–60% confluence and transiently transfected using Lipofectamine 2000 (Invitrogen) with 1:0.5–1 plasmid/lipid ratio. Cells were transfected with a pBK-CMV expression vector containing a rat recombinant GABAAR α, β or γ subunits. Co-transections were done with a plasmid ratio of 1:1 αβ and 2:2:1 for αβγ subunit combinations, respectively. pcDNA3.1-GFP was also co-transfected along with GABAAR subunits as a transfected marker in order to facilitate the visualization of the transfected cells during electrophysiological experiments. Cells were re-plated on glass coverslips after 15–20 h transfection and were cultured for an additional 15–24 h before whole-cell patch-clamp recordings.
(§8) Whole-cell patch-clamp recordings were performed under voltage-clamp mode using an Axopatch 200B or 1D patch-clamp amplifier (Molecular Devices) on HEK293 cells and cultured neurons. Whole-cell currents were recorded at a holding potential of −60 mV, and signals were filtered at 2 kHz, digitized at 10 kHz (Digidata 1322 A). Recording pipettes (3–5 MΩ) were filled with the intracellular solution that contained (mM): CsCl 140, HEPES 10, Mg-ATP 4, QX-314 5, pH 7.20; osmolarity, 290–295 mOsm. BAPTA (10 mM) was added in the intracellular solution. The coverslips were continuously superfused with the extracellular solution containing (mM): NaCl 140, KCl 5.4, HEPES 10, MgCl2 1.0, CaCl2 1.3, glucose 20, pH 7.4; osmolarity, 305–315 mOsm. […] Dose–response curves were created by fitting data to Hill equation: I = Imax/[1 + (EC50/[A])^n], where I is the current, Imax is the maximum current, [A] is a given concentration of agonist, n is the Hill coefficient. […] All experiments were performed at room temperature.

native GABAARs = assay: GABA-evoked whole-cell currents in cultured hippocampal neurons; type: cell-based, rat
Experimental: Cultured hippocampal neurons were prepared from the brains of D18 fetal Wister rats. Tissues were digested with a 0.25% trypsin solution (Invitrogen) for 25 min at 37 °C, and then mechanically dissociated using a fire-polished Pasteur pipette. Next, the cell suspension was centrifuged at 2500 × g for 50 s and the cell pellets were resuspended in DMEM containing 10% Fetal Bovine Serum (FBS; Sigma-Aldrich). Cells were seeded on poly-D-lysine-coated 24-well coverslips at a density of 2.5 × 10^5 cells/well. Cultures were maintained in a humidified incubator with 5% CO2 at 37 °C. After 24 h, plating medium was changed to Neurobasal medium supplemented with B-27 supplement and L-glutamine, and the media changed twice weekly thereafter. Cultured neurons were used for electrophysiological recordings between 10–14 days after plating.
as §8

[2] = system: GABAAR-mediated currents, WT mice; assay: Whole-cell recording of CA1 neurons, hippocampal slices of WT mice; type: cell-based, mouse; settings: AP5 50 µM
Experimental: as §4, §5

rat α1β2 GABAARs = biological target: T4, rat α1β2 GABAARs (Rattus norvegicus, UniProt P62813+P63138); assay: Whole-cell patch clamp of GABA-evoked currents, HEK293 cells expressing α1β2; type: cell-based
T4 construct: expressed in transfected cells; host or cells: HEK293
Description: as §6
HEK293 cells were transiently transfected with rat GABAAR α1/β2 (a–e) or α1/β2/γ2 (f) subunits. Whole-cell voltage-clamp recordings were performed with a chloride-based intracellular recording solution at a holding membrane potential of −60 mV.
as §7, §8

extrasynaptic GABAARs = assay: GABAAR-mediated tonic currents in cultured hippocampal neurons; type: cell-based, rat; settings: prior addition of AP5 200 μM; bicuculline 10 μM
Experimental: as §1, §2, §3

NMDA receptors = assay: NMDA receptor blockade in cultured hippocampal neurons; type: cell-based, rat; settings: MK-801 10 μM co-applied with NMDA 50 μM through the bath for 3 min
[3] = Kainic acid-induced seizure; type: in vivo, mouse; settings: 20 mg/kg i.p.
Experimental: To test the allosteric potentiation of GABAARs by presynaptically released glutamate under certain physiological conditions, we delivered five trains of four pulses of theta-burst stimulation to increase endogenous glutamate released from the presynaptic glutamatergic terminals, and compared its effect on the pharmacologically isolated eIPSCs (following blockade of both AMPAR and NMDAR-mediated EPSCs) in WT and KI mice.
Kainic acid (KA) was dissolved in sterile saline at the concentration of 20 mg/ml. KA (20 mg/kg, i.p.) or same volume of saline as vehicle control was administered by intraperitoneal injection to induce seizures. Diazepam (20 mg/kg, s.c., obtained from Children’s Hospital of Chongqing Medical University) was injected 30 min before the injection of KA. […] All experiments were performed in accordance with approved institutional animal care guidelines.

N[C@H](CCCP(=O)(O)O)C(=O)O [AP5, D-2-amino-5-phosphonovaleric acid]
mIPSC amplitude (postsynaptic GABAARs): 36.6 ± 3.6 pA
mIPSC frequency (postsynaptic GABAARs): 0.90 ± 0.29 Hz
GABA-evoked currents relative to baseline [1]: 104.6 ± 12.7%
[3H]glutamate binding activity in presence of competitor (α1β2 GABAARs; 40 nM [3H]glutamate + 0.4 mM non-radiolabeled competitor): 240.8 ± 36.8 CPM
GABA currents in presence of ligand, compared with GABA alone (rat α1β2γ2 GABAARs; ligand 100 μM each, GABA 1 μM): 173.3 ± 3.7%
amplitude of GABA currents, % of the control (native GABAARs; AP5 100 μM bath, GABA 0.5 μM, TTX and CNQX present): 157.7 ± 9.1%
reversal potential of GABA currents (I-V curve) (native GABAARs; AP5 200 µM, GABA 10 μM): without altering the reversal potential
potentiation of GABA currents after NMDA receptor blockade (native GABAARs; after MK-801 10 μM + NMDA 50 μM for 3 min, AP5 200 μM, GABA 10 μM (Fig. S1a)): reversibly potentiated GABA currents
EC50 (native GABAARs; read-out: EC50 of AP5 enhancement of GABA currents, GABA 0.5 μM): 150 ± 27 µM
GABA-evoked currents relative to baseline [2]: 193.5 ± 27.0%
GABA-mediated currents in presence of ligand, compared with currents induced by GABA alone (rat α1β2 GABAARs; ligand 100 μM, GABA 1 μM): 254.9 ± 33.0%
tonic current revealed by bicuculline (extrasynaptic GABAARs): 17.28 ± 2.80 pA

Cc1onc(O)c1CC(N)C(=O)O (stereo not drawn) [AMPA, α-amino-3-hydroxyl-5-methyl-4-isoxazole-propionate]
GABA currents in presence of ligand, compared with GABA alone (rat α1β2γ2 GABAARs): 165.8 ± 6.2%
GABA-mediated currents in presence of ligand, compared with currents induced by GABA alone (rat α1β2 GABAARs): 339.2 ± 38.0%

CN[C@H](CC(=O)O)C(=O)O [NMDA, N-methyl-D-aspartate]
GABA currents in presence of ligand, compared with GABA alone (rat α1β2γ2 GABAARs): 171.7 ± 5.4%
GABA-mediated currents in presence of ligand, compared with currents induced by GABA alone (rat α1β2 GABAARs): 267.6%

N[C@H](C(=O)O)[C@@H](OCc1ccccc1)C(=O)O [TBOA, threo-β-Benzyloxyaspartic acid]
GABA currents in presence of ligand, compared with GABA alone (rat α1β2γ2 GABAARs; ligand 100 μM each, GABA 1 μM): 159.9 ± 7.8%
GABA-mediated currents in presence of ligand, compared with currents induced by GABA alone (rat α1β2 GABAARs; ligand 100 μM, GABA 1 μM): 202.8 ± 18.3%

C[C@]12N[C@H](Cc3ccccc31)c1ccccc12 [MK-801]
NMDA receptor blockade (NMDA receptors): complete and long-lasting NMDA receptor blockade
effect on GABA currents (rat α1β2 GABAARs; MK-801, concentration not given, data not shown): did not affect GABA currents

C=C(C)[C@H]1CN[C@H](C(=O)O)[C@H]1CC(=O)O [kainic acid]
latency of kainic acid-induced seizure activity ([3]; WT mice): 189.6 ± 15.2 s
latency of kainic acid-induced seizure activity ([3]; β2E181G KI mice): 161.0 ± 4.0 s
GABA currents in presence of ligand, compared with GABA alone (rat α1β2γ2 GABAARs): 188.7 ± 5.5%
GABA-mediated currents in presence of ligand, compared with currents induced by GABA alone (rat α1β2 GABAARs): 388.2 ± 61.0%

[^3H]glutamate
[3H]glutamate binding activity (α1β2 GABAARs; 40 nM [3H]glutamate only, 100 µg membrane, 1 h on ice): 938.2 ± 82.7 CPM

N#Cc1cc2[nH]c(=O)c(=O)[nH]c2cc1[N+](=O)[O-] [CNQX, 6-cyano-7-nitroquinoxaline-2,3-dione]
GABA currents in presence of ligand, compared with GABA alone (rat α1β2γ2 GABAARs; CNQX, concentration not given, GABA 1 μM): 105.6 ± 6.5%
GABA evoked currents in presence of ligand, compared with GABA alone (rat α1β2 GABAARs; CNQX 10 μM, GABA 1 μM): 107.3 ± 6.5%
effect on GABA-evoked currents (rat α1β2 GABAARs; CNQX 1 mM, data not shown): did not affect GABA-evoked currents
